# From a melting point compilation (Tetko et al.; mined from patent text by program, amines drawn as free bases though some values may be those of a salt)
row,melting point,Compound
1,120 to 122 °C,CC(C)(C)OC(=O)N[C@H]1C[C@@H](CON2C(=O)c3ccccc3C2=O)C1
2,183 to 185 °C,NC(=O)N1c2ccccc2C=C(Cl)c2ccccc21
3,250 to 253 °C,N#Cc1cc(C2=Nc3ccc(-c4ccc(F)cc4F)cc3NC(=O)C2)ccn1
4,54 to 55 °C,O=[N+]([O-])c1cc(OCc2ccccc2)cc(C2CO2)c1 (centres undefined)
5,208 to 220 °C,c1ccc(-c2cc3nnc(-c4ccccc4)n3nc2OCc2cn[nH]n2)cc1
6,177 to 180 °C,Cc1cc(C)c(-c2nc(C)cc3c2ncn3Cc2ccccc2)c(C)c1
7,126 to 130 °C,O=C(O)c1c[nH]c(CCc2ccccc2)n1
8,232 to 233 °C,CCc1cc(CCN2C(=O)c3ccccc3C2=O)c(=O)[nH]c1C
9,86.5 to 88 °C,CCOC(=O)CC(C#N)(CC(=O)OCC)c1ccccn1
10,93 to 94 °C,CCCNS(=O)(=O)c1cc(C(=O)CCC(=O)OC)ccc1Cl
11,202 to 204 °C,CCC(C=O)c1ccc(S(=O)(=O)NC)cc1 (centres undefined)
12,208 to 210 °C,CN(C)CCCN=C1CC(c2ccc(Cl)c(Cl)c2)Cc2c1c(=O)c1cc(Cl)ccc1n2O (centres undefined)
13,105 to 106 °C,COc1ccccc1CN1CCCc2cc(OCc3ccccc3)c(OC)cc2C1
14,168 °C,NC(=S)NN1CCOCC1
15,129 to 132 °C,CCC1(O)C(C)=CC(=O)N1Cc1ccccc1 (centres undefined)
16,92 to 94 °C,CCN(CC)CCNC(=O)c1cc(Cl)c(N)cc1OCC(=O)OC
17,101 to 102 °C,CCN(c1nc(C)cc(-c2ccccc2C(F)(F)F)n1)c1ccc(C(C)C)cc1Br
18,118 to 120 °C,CC(=O)OCC1OC(OC(C)=O)C(N=[N+]=[N-])C([N+](=O)[O-])C1OC(C)=O (centres undefined)
19,130 °C,CCOC(=O)c1cn(CC)c2nc(N3CCN(C)CC3)ccc2c1=O
20,40 to 41 °C,CCCCCCCCCCOC(=O)N[C@H]1CCCNC(=O)C1
21,132 to 134 °C,Cc1ncc(-c2ccc(F)cc2)n1-c1ccc(Cl)cc1
22,89 to 90 °C,CN(NCc1ccccc1)c1cnn(-c2cccc(C(F)(F)F)c2)c(=O)c1
23,38.5 to 39.5 °C,CCCCCCCC/C=C\CCCCCCCC(=O)OCC1(CO)CCC(=O)O1 (centres undefined)
24,128 to 130 °C,O=C(O)CCCc1ccc(NS(=O)(=O)c2ccccc2)cc1
25,124 to 128 °C,CC(C)CCCC(C)C1CCC2C3CC=C4CC(NC(=O)CCN(C)C(=O)OC5c6ccccc6-c6ccccc65)CCC4(C)C3CCC12C (centres undefined)

row,melting point,Compound
1,218 to 220 °C,Cc1cc(-c2nc3cccnn3c2-c2ccnc(NC(=O)NC3CCC(O)CC3)c2)ccc1F (centres undefined)
2,156 to 157 °C,COc1cc(Nc2nccc(-c3ccc(N4CCN(CCO)CC4)nc3)n2)cc(OC)c1OC
3,248 to 250 °C,O=C(OCc1ccncc1)c1cc2c(=O)n(Cc3ccccc3)c(=O)[nH]c2s1
4,85 to 87 °C,Cc1cc(C(=O)C(=O)O)c(O)cc1Oc1ccccc1
5,221 to 222 °C,COc1ccc(Cl)c2c1[nH]c(=O)n1nc(CO)cc21
6,77.5 to 79 °C,CCONC(CC)=C1C(=O)CC(C(C)(C)Sc2ccc(C)cc2)CC1=O (centres undefined)
7,243 °C,CCOC(=O)c1c[nH]c(=O)c2cc(Cl)ccc12
8,96 to 97 °C,O=C(O)Cc1ccc2c(c1)C(=O)c1ccccc1CS2
9,71 to 72 °C,CC(C#N)c1coc2cc(I)ccc12 (centres undefined)
10,99 to 100 °C,COc1ccc(OCc2ccccc2)cc1C=O
11,> 260 °C,CCCCc1nc2cccnc2n1Cc1ccc2c(Cl)c(C(=O)O)sc2c1
12,119 to 121 °C,COC(=O)c1ccccc1-c1ccc(C)cc1
13,98 to 100 °C,C#CCCN1CCC(O)(c2ccc(Cl)cc2)CC1
14,239 to 241 °C,COC1C(O)C(CO)OC1n1cnc2c(N)nc(F)nc21 (centres undefined)
15,107 to 108 °C,COC(=O)c1cc(SC)cnc1C1=NC(C)(C(C)C)C(=O)N1 (centres undefined)
16,135 °C,Cc1cc(Cn2nc(-c3ccccc3)oc2=O)cc(C)c1O
17,113 to 114 °C,COc1ccc(NC(=O)N2CCCC2=O)cc1
18,96 to 97.5 °C,CON=C(c1ncno1)c1ccccc1COc1ccc(Cl)cc1
19,122 °C,Clc1cc2oc3ccccc3c2nn1
20,102 to 107 °C,CN(C(F)(F)C(F)F)S(=O)(=O)c1ccccc1S(N)(=O)=O
21,51 to 53 °C,CCOC(=O)C(c1ccccc1)n1cccc1 (centres undefined)
22,201 °C,Cc1nc(N)n(C)c(=O)c1CCN1CCN(c2noc3ccccc23)CC1
23,71 to 73 °C,CCN(CC)C(=O)n1ccc(S(=O)(=O)c2c(C)cccc2OC)n1
24,175 to 177 °C,O=C1C=CC(O)(c2cc3ccccc3n2S(=O)(=O)c2ccccc2)c2ccccc21 (centres undefined)
25,133 °C,COCCO[C@@H]1c2ccc3c(nc(C4CC4)n3C)c2O[C@H](c2ccccc2)[C@H]1O

row,melting point,Compound
1,80 to 82 °C,CC(C)Oc1ccc(NC=O)cc1C(F)(F)F
2,61 to 66 °C,CC(C)(Cl)Cn1ncc(Cl)c(Cl)c1=O
3,112 °C,CC(NS(=O)(=O)c1cc(C(=O)Cl)ccc1Cl)c1ccccc1 (centres undefined)
4,188 to 190 °C,N#Cc1c(C#N)c(Oc2ccc3ccccc3c2)c(Oc2ccc3ccccc3c2)c(Oc2ccc3ccccc3c2)c1Oc1ccc2ccccc2c1
5,156 to 157 °C,CNc1cc(Oc2ccc3c(C(=O)Nc4ccc(N5CCOCC5)c(C(F)(F)F)c4)cccc3c2)ncn1
6,97 to 103 °C,CC(C)(C)N1CC(c2cc(Cl)c(N)c(Cl)c2)OC1=O (centres undefined)
7,110 °C,OC1CSC(=S)N1c1ccccn1 (centres undefined)
8,151 to 153 °C,O=C(N[C@@H](Cc1ccccc1)[C@H](O)CCl)OCc1ccccc1
9,192 to 194 °C,NS(=O)(=O)c1ccc(-n2nc(CO)cc2-c2ccc(Cl)cc2)cc1
10,90 to 94 °C,CCOC(=O)c1cn(-c2ccc3ncccc3c2)cn1
11,100 to 101 °C,O=C(NC(=O)C(c1ccccc1)c1ccccc1)OCc1ccccc1
12,186 to 188 °C,CCCC(=O)NCc1ccc(C(=O)O)cc1
13,179 to 180 °C,Cc1csc(C(=O)O)c1NC(=O)OC(C)(C)C
14,75 to 77 °C,CC(C)(C)OC(=O)NCCCn1nnnc1S
15,140 to 141 °C,O=Cc1cn(Cc2ccc3cc(OCc4ccccc4)ccc3c2)cc1-c1ccccc1
16,117 to 119 °C,COc1ccc2cc(COC(C)(C(=O)O)C(F)(F)F)ccc2c1 (centres undefined)
17,119 to 122 °C,CCOCCCN(C)Cc1ccc(NC(=O)C2=Cc3cc(-c4ccc(C)cc4)ccc3OCC2)cc1
18,182 to 185 °C,COCn1cncc1C[C@H](NC(=O)C(Cc1cccc2ccccc12)Cc1cccc2ccccc12)C(=O)OC
19,125 to 126 °C,CCOC(=O)c1cn2cnc3ccccc3c2c1C(=O)OCC
20,90 to 92 °C,Cc1cc(CN2N=C(C(F)(F)C(F)(F)F)NC2(O)c2ccc(Cl)cc2)ccc1[N+](=O)[O-] (centres undefined)
21,183 to 185 °C,CCN(C(=O)COc1nc(-c2ccc(N)cc2)nc(C)c1C)c1ccccc1
22,113 to 115 °C,CC(C)(C)OCCCC1c2ccccc2COc2cccc(O)c21 (centres undefined)
23,172 °C,c1ccc(Nc2nc3ccccc3n3cc(-c4ccccc4)cc23)cc1
24,169 to 172 °C,Cc1ccc(C2c3c(C)c(Br)c(C)c(C4OCCO4)c3OC2(C)C)cc1 (centres undefined)
25,151 °C,Cn1nc(-c2cc([N+](=O)[O-])c(Cl)cc2F)c(Cl)c1S(C)=O (centres undefined)

row,melting point,Compound
1,197 to 199 °C,COc1ccc(C(=O)Nc2cc(OC)c(Cl)cc2OC)cc1F
2,97 to 98 °C,CC(=O)OCC1OC(n2cc(C)c(=O)[nH]c2=O)CC1F (centres undefined)
3,125 to 126 °C,CCOC(=O)C(C)(C)Oc1ccc(OCCn2c(=O)sc3cc(C(=O)c4cccc(Cl)c4)ccc32)cc1
4,109 °C,C=C(C)COc1cc(C)c(NC=O)c(C)c1CC(=C)C
5,199 to 201 °C,N#Cc1ccc(COc2cc(O)cc(C(=O)Nc3ccc(C#N)cc3)c2)cc1
6,123 to 124 °C,CCCCCC1(c2ccccc2)CC=CC(=O)O1 (centres undefined)
7,197 to 198 °C,CCOc1n[nH]cc1C(=O)NCc1ccc(Cl)cc1Cl
8,184 °C,CC1(C)OC(=C(C#N)C#N)C(C#N)=C1c1ccc(N=[N+]=[N-])cc1
9,200 to 206 °C,N#Cc1c[nH]c(-c2ccc3ccccc3c2)c1
10,> 300 °C,Oc1nc2cc(Cl)ccc2n2cnnc12
11,106 to 107 °C,CCCCN/C(=C1/Sc2ccccc2C1=O)c1ccccc1
12,184 to 187 °C,NS(=O)(=O)c1ccc(NC(=O)C(=O)N2CCC(Cc3ccccc3)CC2)cc1
13,151 to 152 °C,COc1ccc(C(=O)N2CCc3cc(OCc4ccccc4)c(OC)cc3C2=O)cc1
14,165 to 166 °C,FC(F)(F)c1cc(Cl)ccc1N=C(Cl)n1cncn1
15,123 to 125 °C,C[C@@H]1CNCc2cc3ccc(C(F)(F)F)cc3n21
16,172 to 174 °C,CC(=O)Oc1ccc(Cn2ncc(-c3ccc(S(C)(=O)=O)cc3)c(-c3ccc(F)cc3)c2=O)cc1
17,99 to 100 °C,CCOC(=O)c1c[nH]nc1NCc1ccccc1
18,214 to 216 °C,COc1ccc(-n2c(-c3ccc(SC)cc3)nc(SC)c(C#N)c2=O)cc1
19,255 °C,CC(C)NC(=NC#N)Nc1ccc(C2=NNC(=O)CC2C)cc1 (centres undefined)
20,107 to 112 °C,COCCN1CCc2cc(Nc3ncc(Cl)c(Nc4ccccc4NS(C)(=O)=O)n3)c(OC)cc2CC1
21,105 to 106 °C,O=C(Cc1ccccn1)OC(=O)Cc1ccccn1
22,174 to 178 °C,CC(C)(C)c1cc(C(C)(C)C)c2oc(N)c(-c3ccccc3)c2c1
23,75 to 76 °C,CCOC(=O)c1cc(C=O)cn1C
24,112 to 113 °C,Cc1nc2ccccn2c(=O)c1CCN1CCN(c2cccc(Cl)c2)CC1

row,Compound,melting point
1,CC(=Cc1ccc(N(C)C)cc1Br)[N+](=O)[O-],102 to 103 °C
2,ClCCN1C2C=C(c3ccc4ccccc4c3)CC1CC2 (centres undefined),122 to 123 °C
3,Cc1ccc(NC(=O)N[C@@H]2N=C(c3ccccc3)c3ccccc3N(C)C2=O)cc1,233 to 235 °C
4,O=[N+]([O-])c1ccc2[nH]cc(C3=CCN(Cc4ccccc4)CC3)c2c1,168 to 170 °C
5,c1cc(OC2CN3CCC2CC3)no1 (centres undefined),80 to 81 °C
